# Values quoted from earlier work in patent publication US20190282525A1, “TIOPRONIN ORAL COMPOSITION” (CRONUS RESEARCH LABS PRIVATE LIMITED, priority 2018, published 2019).
# Settings: 'might be expected'
structure (smiles),measurement,setting,value
"CC(S)C(=O)NCC(=O)O (stereo not drawn) [tiopronin, α-mercaptopropionylglycine]",reduction in urinary cystine,tiopronin dosage of 1 g/day,250 to 350 mg/day
same,decline in urinary cystine,tiopronin dosage of 2 g/day,approximately 500 mg/day
